Results: patent US7943648B2, “Salts of imidazole-5-carboxylic acid derivatives, a method for preparing same and pharmaceutical compositions comprising same” (Shanghai Allist Pharmaceutical Inc., priority 2006, dated 2011)

Assays:
[1] = solvent H2O; stirred strongly 30 seconds in each 5 minutes, observed within 30 minutes
Text: Each compound prepared above was weighted and added to solvents with different volume capacity.

[2] = SD rats drug absorption test
Experimental: The intravenous blood was collected from venous plexus behind eyeballs of rats at different time before and after administration, and the blood plasma is prepared by separated.
Blood samples are collected from an orbit at different time after the administration.

CCCCc1nc(Cl)c(C(=O)OCOC(=O)OC(C)C)n1Cc1ccc(-c2ccccc2-c2nnn[nH]2)cc1 [Compound 1, 2-butyl-4-chloro-1-[2′-(1H-tetrazol-5-yl)1,1′-biphenyl-methyl]imidazole-5-carboxylic acid, 1-[(isopropoxycarbonyl)oxy]methyl ester]
Solubility (in H2O) [1]: Slightly soluble (1 g of compound can be dissolved in 100 ml˜1000 ml solvent)
Bioavailability ([2]; intragastric infusion versus EXP3174 intravenous 7.9 mg/kg, based on plasma EXP3174, 7.9 mg/kg): 4.11%
Tmax ([2]; intragastric infusion, same dosage as EXP3174 (7.9 mg/kg), active metabolite EXP3174 measured in blood plasma by LC-MS/MS): 2 h
